Values quoted from earlier work as cited in patent publication US20170340738A1, “STABLE ACIDIC INSULIN FORMULATIONS” (MERCK SHARP & DOHME CORP., priority 2012, published 2017).

Settings: administered once daily subcutaneously

Substance: Gly(A21), Arg(B31), Arg(B32)-human insulin [insulin glargine]
- Basal coverage: 24 h
